Measurements as given in PubChem BioAssay (NCI).
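A five-concentration, 48-hour dose response in 96-well plates underlies each endpoint, interpolated linearly between surrounding concentrations. Abbreviation: GI50, concentration required for 50% inhibition of growth. TGI: total growth inhibition.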

Key:
Test in all cases: inhibition of tumour cell growth, NCI panel, 48 h
[1] = test system: NCI-H23 lung
[2] = test system: NCI-H460 lung
[3] = test system: NCI-H522 lung
[4] = test system: NCI/ADR-RES ovarian
[5] = test system: OVCAR-3 ovarian
[6] = test system: OVCAR-4 ovarian
[7] = test system: OVCAR-5 ovarian
[8] = test system: OVCAR-8 ovarian
[9] = test system: PC-3 prostate
[10] = test system: RPMI-8226 leukemia
[11] = test system: RXF 393 renal
[12] = test system: SF-268 CNS
[13] = test system: SF-295 CNS
[14] = test system: SF-539 CNS
[15] = test system: SK-MEL-2 melanoma
[16] = test system: SK-MEL-28 melanoma
[17] = test system: SK-MEL-5 melanoma
[18] = test system: SK-OV-3 ovarian
[19] = test system: SN12C renal
[20] = test system: SNB-19 CNS
[21] = test system: SNB-75 CNS
[22] = test system: SR leukemia
[23] = test system: SW-620 colon
[24] = test system: T-47D breast
[25] = test system: TK-10 renal
[26] = test system: U251 CNS
[27] = test system: UACC-257 melanoma
[28] = test system: UACC-62 melanoma
[29] = test system: UO-31 renal

Oc1cc(N2CC2)c(O)cc1N1CC1
GI50 [1]: 0.396 µM
TGI [1]: 1.8 µM
GI50 [2]: 0.21 µM
TGI [2]: 5.15 µM
GI50 [3]: 0.287 µM
TGI [3]: 1.48 µM
GI50 [4]: 0.961 µM
TGI [4]: 7.55 µM
GI50 [5]: 0.839 µM
TGI [5]: 4.46 µM
GI50 [6]: 2.28 µM
TGI [6]: 8.9 µM
GI50 [7]: 1.88 µM
TGI [7]: 9.93 µM
GI50 [8]: 1.25 µM
TGI [8]: 9.44 µM
GI50 [9]: 1.85 µM
TGI [9]: 14.6 µM
GI50 [10]: 1.53 µM
TGI [10]: 9.74 µM
GI50 [11]: 0.358 µM
TGI [11]: 1.21 µM
GI50 [12]: 0.585 µM
TGI [12]: 7.97 µM
GI50 [13]: 0.377 µM
TGI [13]: 5.32 µM
GI50 [14]: 0.389 µM
TGI [14]: 2.38 µM
GI50 [15]: 1.46 µM
TGI [15]: 4.55 µM
GI50 [16]: 1.71 µM
TGI [16]: 4.2 µM
GI50 [17]: 0.874 µM
TGI [17]: 2.99 µM
GI50 [18]: 1.54 µM
TGI [18]: 8.77 µM
GI50 [19]: 0.586 µM
TGI [19]: 5.07 µM
GI50 [20]: 1.78 µM
TGI [20]: 13.5 µM
GI50 [21]: 1.14 µM
TGI [21]: 2.6 µM
GI50 [22]: 0.159 µM
TGI [22]: 4.03 µM
GI50 [23]: 0.372 µM
TGI [23]: 7.37 µM
GI50 [24]: 1.1 µM
TGI [24]: 6.48 µM
GI50 [25]: 1.27 µM
TGI [25]: 9.35 µM
GI50 [26]: 0.577 µM
TGI [26]: 10.7 µM
GI50 [27]: 0.851 µM
TGI [27]: 2.98 µM
GI50 [28]: 0.918 µM
TGI [28]: 2.91 µM
GI50 [29]: 0.164 µM
TGI [29]: 0.818 µM
